Measurements: US12643879B2, “Functionalized heterocyclic compounds as modulators of stimulator of interferon genes (STING)” (RYVU THERAPEUTICS S.A., priority 2019, dated 2026)
Where a name gives a salt, the structure may show the parent alone. Read-outs that look alike come from different tables or passages of the source.

How the values were obtained:
[1] = tested on: NF-κB pathway in THP-1 dual cells; assay: THP-1 Dual reporter assay, NF-κB pathway (SEAP); type: cell-based; conditions: Homo sapiens, THP1-Dual, read-out: THP1 Dual EC50 (μM) NFkB
Method: (§1) Compounds of the present invention were tested for their activity using THP-1 dual cells (Invivogen, cat no. thpd-nfis) allowing for simultaneous study of NF-κB pathway and the interferon regulatory factor (IRF) pathway. THP-1 dual cells contain luciferase reporter gene under the control of an ISG54 (interferon-stimulated gene) minimal promoter in conjunction with five interferon-stimulated response elements and a secreted embryonic alkaline phosphatase reporter gene under the control an IFN (interferon)-β minimal promoter fused to five copies of the NF-κB consensus transcriptional response element with three copies of the c-Rel binding site. Following 18 h of stimulation with STING agonist, medium was collected and transferred onto fresh cell culture plate. To verify activity of the IRF pathway, luminescence activity was measured with standard laboratory plate reader immediately after addition 10 μl of the medium to 40 or 50 μl of luminescence reagent (Invivogen, cat. No. rep-qlc2). To verify activity of NF-κB pathway, 10 or 20 μl of the medium was mixed with 80 μl of a detection medium (Invivogen, cat. No. rep-qb2) and incubated for 1 or 2 hours at 37° C. in a humidified atmosphere containing 5% CO2. Next, absorbance at 630 or 655 nm was recorded using standard laboratory plate reader.

[2] = tested on: interferon regulatory factor (IRF) pathway in THP-1 dual cells; assay: THP-1 Dual reporter assay, IRF pathway (luciferase); type: cell-based; conditions: Homo sapiens, THP1-Dual, read-out: THP1 Dual EC50 (μM) IRF
Method: as §1

[3] = 18 h stimulation, absorbance at 630 or 655 nm

| Structure (SMILES) | EC50 [1, 3] [µM] | EC50 ([2]; 18 h stimulation, luminescence) [µM] | EC50 ([1]; 18 h) [µM] | EC50 ([2]; 18 h) [µM] |
| --- | --- | --- | --- | --- |
| Cc1ccc(N2CCC[C@H](N(Cc3ccnc(C)c3)Cc3cn(C4CC4)c4cc(OCCOC(=O)NCc5ccc(NC(=O)CCOCCOCCOCCNC(=O)OC(C)(C)C)cc5)c(F)cc4c3=O)C2)cn1 [Example 47B, 2-{[1-cyclopropyl-6-fluoro-3-({[(3S)-1-(6-methylpyridin-3-yl)piperidin-3-yl][(2-methylpyridin-4-yl)methyl]amino}methyl)-4-oxo-1,4-dihydroquinolin-7-yl]oxy}ethyl N-{[4-(3-{2-[2-(2-{[(tert-butoxy)carbonyl]amino}ethoxy)ethoxy]ethoxy}propanamido)phenyl]methyl}carbamate] | – | – | < 1 | < 1 |
| Cc1ccc(N2CCC[C@H](N(Cc3ccnc(C)c3)Cc3cn(C4CC4)c4cc(N5CCO[C@@H](CO)C5)c(F)cc4c3=O)C2)cn1 (single isomer, unassigned) [Example 72] | < 1 | < 1 | – | – |
| Cc1cc(CN(Cc2c[nH]c3ccccc3c2=O)[C@H]2CCCN(c3ccc(N)nc3)C2)ccn1 [Example 38, 3-({[(3S)-1-(6-aminopyridin-3-yl)piperidin-3-yl][(2-methylpyridin-4-yl)methyl]amino}methyl)-1,4-dihydroquinolin-4-one] | < 1 | < 1 | – | – |
| Cc1cc(CN(Cc2cn(C3CC3)c3cc(N4CC[C@@H](O)C4)c(F)cc3c2=O)[C@H]2CCCN(c3noc(C)n3)C2)ccn1 [Example 48, 1-cyclopropyl-6-fluoro-7-[(3R)-3-hydroxypyrrolidin-1-yl]-3-({[(3S)-1-(5-methyl-1,2,4-oxadiazol-3-yl)piperidin-3-yl][(2-methylpyridin-4-yl)methyl]amino}methyl)-1,4-dihydroquinolin-4-one hydrochloride] | 1 to 10 | < 1 | – | – |
| Cc1cc(CN(Cc2cn(C3CC3)c3cc(Cl)c(F)cc3c2=O)[C@H]2CCCN(c3cnccc3CO)C2)ccn1 [Example 74, 7-chloro-1-cyclopropyl-6-fluoro-3-({[(3S)-1-[4-(hydroxymethyl)pyridin-3-yl]piperidin-3-yl][(2-methylpyridin-4-yl)methyl]amino}methyl)-1,4-dihydroquinolin-4-one] | 1 to 10 | 1 to 10 | – | – |
| Cc1cc(CN(Cc2cn(C3CC3)c3cc(OCCO)c(F)cc3c2=O)[C@H]2CCCN(c3cnc(C)c(F)c3)C2)ccn1 [Example 83, 1-cyclopropyl-6-fluoro-3-({[(3S)-1-(5-fluoro-6-methylpyridin-3-yl)piperidin-3-yl][(2-methylpyridin-4-yl)methyl]amino}methyl)-7-(2-hydroxyethoxy)-1,4-dihydroquinolin-4-one] | < 1 | < 1 | – | – |
| Cc1ccc(N2CCC[C@H](N(Cc3ccnc(C)c3)Cc3cn(C4CC4)c4cc(N5CC[C@@H](N)C(F)(F)C5)c(F)cc4c3=O)C2)cn1.Cl (single isomer, unassigned) [Example 56, 7-[(4R)-4-amino-3,3-difluoropiperidin-1-yl]-1-cyclopropyl-6-fluoro-3-({[(3S)-1-(6-methylpyridin-3-yl)piperidin-3-yl][(2-methylpyridin-4-yl)methyl]amino}methyl)-1,4-dihydroquinolin-4-one] | < 1 | < 1 | – | – |
| Cc1cc(CN(Cc2cn(C3CC3)c3cc(OCCO)c(F)cc3c2=O)[C@H]2CCCN(c3ccc(C4CC4)nc3)C2)ccn1 [Example 100, 1-cyclopropyl-3-({[(3S)-1-(6-cyclopropylpyridin-3-yl)piperidin-3-yl][(2-methylpyridin-4-yl)methyl]amino}methyl)-6-fluoro-7-(2-hydroxyethoxy)-1,4-dihydroquinolin-4-one] | < 1 | < 1 | – | – |
| Cc1ccc(N2CCC[C@H](N(Cc3ccnc(C)c3)Cc3cn(C4CC4)c4cc(C5C[C@@H](O)CN5)ccc4c3=O)C2)cn1 (stereo partly drawn) [Example 76, 1-cyclopropyl-7-[(4R)-4-hydroxypyrrolidin-2-yl]-3-({[(3S)-1-(6-methylpyridin-3-yl)piperidin-3-yl][(2-methylpyridin-4-yl)methyl]amino}methyl)-1,4-dihydroquinolin-4-one] | 1 to 10 | 1 to 10 | – | – |
| Cc1ccc(N2CCC[C@H](N(Cc3ccnc(C)c3)Cc3cn(C4CC4)c4cc(-c5cnn(CCO)c5)c(F)cc4c3=O)C2)cn1 [Example 62, 1-Cyclopropyl-6-fluoro-7-[1-(2-hydroxyethyl)-1H-pyrazol 4-yl]-3-({[(3S)-1-(6-methylpyridin-3-yl)piperidin-3-yl][(2-methylpyridin-4-yl)methyl]amino}methyl)-1,4-dihydroquinolin-4-one] | < 1 | < 1 | – | – |
| Cc1cc(CN(Cc2cn(C)c3ccccc3c2=O)[C@H]2CCCN(c3ccc(CCO)nc3)C2)ccn1 [Example 43, 3-({[(3S)-1-[6-(2-hydroxyethyl)pyridin-3-yl]piperidin-3-yl][(2-methylpyridin-4-yl)methyl]amino}methyl)-1-methyl-1,4-dihydroquinolin-4-one] | – | – | 1 to 10 | 1 to 10 |
| Cc1cc(CN(Cc2cn(C)c3ccccc3c2=O)[C@H]2CCCN(c3ccc(CO)nc3)C2)ccn1 [Example 40, 3-({[(3S)-1-[6-(hydroxymethyl)pyridin-3-yl]piperidin-3-yl][(2-methylpyridin-4-yl)methyl]amino}methyl)-1-methyl-1,4-dihydroquinolin-4-one] | 1 to 10 | 1 to 10 | – | – |

More lines, main results first:

| EC50 [1, 3] [µM] | EC50 ([2]; 18 h stimulation, luminescence) [µM] | Structure (SMILES) | EC50 ([1]; 18 h) [µM] | EC50 ([2]; 18 h) [µM] |
| --- | --- | --- | --- | --- |
| 1 to 10 | 1 to 10 | Cc1ccc(N2CCC[C@H](N(Cc3ccnc(C)c3)Cc3cn(C4CC4)c4cc(OCCN(C)CCOCCOCCOCCOCCN)c(F)cc4c3=O)C2)cn1 [Example 11C, 7-[(1-amino-15-methyl-3,6,9,12-tetraoxa-15-azaheptadecan-17-yl)oxy]-1-cyclopropyl-6-fluoro-3-({[(3S)-1-(6-methylpyridin-3-yl)piperidin-3-yl][(2-methylpyridin-4-yl)methyl]amino}methyl)-1,4-dihydroquinolin-4-one] | – | – |
| < 1 | < 1 | C#CCOCCOCCOCCOCCOCCC(=O)Nc1ccc(N2CCC[C@H](N(Cc3ccnc(OC)c3)Cc3cn(C4CC4)c4cc(F)c(F)cc4c3=O)C2)cn1 [Example 4A, N-{5-[(3S)-3-{[(1-cyclopropyl-6,7-difluoro-4-oxo-1,4-dihydroquinolin-3-yl)methyl][(2-methoxypyridin-4-yl)methyl]amino}piperidin-1-yl]pyridin-2-yl}-4,7,10,13,16-pentaoxanonadec-18-ynamide] | – | – |
| < 1 | < 1 | C#CCOCCOCCOCCOCCOCCC(=O)OCCOc1cc2c(cc1F)c(=O)c(CN(Cc1ccnc(C)c1)[C@H]1CCCN(c3ccc(C)nc3)C1)cn2C1CC1 [Example 47A, 2-{[1-cyclopropyl-6-fluoro-3-({[(3S)-1-(6-methylpyridin-3-yl)piperidin-3-yl][(2-methylpyridin-4-yl)methyl]amino}methyl)-4-oxo-1,4-dihydroquinolin-7-yl]oxy}ethyl 4,7,10,13,16-pentaoxanonadec-18-ynoate] | – | – |
| > 10 | 1 to 10 | Cc1ccc(N2CCC[C@H](N(Cc3ccnc(C)c3)Cc3cn(C4CC4)c4cc(N5CC[C@@H](NC(=O)OCc6ccc(NC(=O)[C@H](CCCNC(N)=O)NC(=O)[C@@H](NC(=O)CCOCCOCCOCCN=[N+]=[N-])C(C)C)cc6)C5)c(F)cc4c3=O)C2)cn1 [Example 12A, {4-[(2S)-2-[(2S)-2-(3-{2-[2-(2-azidoethoxy)ethoxy]ethoxy}propanamido)-3-methyl-butanamido]-5-(carbamoylamino)pentanamido]phenyl}methyl N-[(3R)-1-[1-cyclopropyl-6-fluoro-3-({[(3S)-1-(6-methylpyridin-3-yl)piperidin-3-yl][(2-methylpyridin-4-yl)methyl]amino}methyl)-4-oxo-1,4-dihydroquinolin-7-yl]pyrrolidin-3-yl]carbamate] | – | – |
| < 1 | < 1 | Cc1ccc(N2CCC[C@H](N(Cc3ccnc(C)c3)Cc3cn(C4CC4)c4cc(N5CC[C@@H](N(C)CCOCCOCCOCCOCCNC(=O)OC(C)(C)C)C5)c(F)cc4c3=O)C2)cn1 [Example 55B, tert-Butyl N-{2-[(3R)-1-[1-cyclopropyl-6-fluoro-3-({[(3S)-1-(6-methylpyridin-3-yl)piperidin-3-yl][(2-methylpyridin-4-yl)methyl]amino}methyl)-4-oxo-1,4-dihydroquinolin-7-yl]pyrrolidin-3-yl]-5,8,11,14-tetraoxa-2-azahexadecan-16-yl}carbamate] | – | – |
| 1 to 10 | 1 to 10 | Cc1ccc(N2CCC[C@H](N(Cc3ccnc(C)c3)Cc3cn(C4CC4)c4cc(OCCN(C)C(=O)COCCOCCN)c(F)cc4c3=O)C2)cn1 [Example 11A, 2-[2-(2-aminoethoxy)ethoxy]-N-(2-{[1-cyclopropyl-6-fluoro-3-({[(3S)-1-(6-methylpyridin-3-yl)piperidin-3-yl][(2-methylpyridin-4-yl)methyl]amino}methyl)-4-oxo-1,4-dihydroquinolin-7-yl]oxy}ethyl)-N-methylacetamide] | – | – |
